From patent US20220220135A1 (BAR-ILAN UNIVERSITY, priority 2019, published 2022)
Like-named read-outs stand apart in the source and are kept apart here.

Experiments:
[1] = cited from earlier work
NPP1 [2] = molecular target: T1, NPP1 (Homo sapiens, UniProt P22413); assay: Inhibition of human NPP1, 100 μM ATP as substrate (FIG. 9, Table 6); type: biochemical; details: 100 μM ATP as a substrate; read-out: Ki, human NPP1
T1 sequence (P22413 1-925): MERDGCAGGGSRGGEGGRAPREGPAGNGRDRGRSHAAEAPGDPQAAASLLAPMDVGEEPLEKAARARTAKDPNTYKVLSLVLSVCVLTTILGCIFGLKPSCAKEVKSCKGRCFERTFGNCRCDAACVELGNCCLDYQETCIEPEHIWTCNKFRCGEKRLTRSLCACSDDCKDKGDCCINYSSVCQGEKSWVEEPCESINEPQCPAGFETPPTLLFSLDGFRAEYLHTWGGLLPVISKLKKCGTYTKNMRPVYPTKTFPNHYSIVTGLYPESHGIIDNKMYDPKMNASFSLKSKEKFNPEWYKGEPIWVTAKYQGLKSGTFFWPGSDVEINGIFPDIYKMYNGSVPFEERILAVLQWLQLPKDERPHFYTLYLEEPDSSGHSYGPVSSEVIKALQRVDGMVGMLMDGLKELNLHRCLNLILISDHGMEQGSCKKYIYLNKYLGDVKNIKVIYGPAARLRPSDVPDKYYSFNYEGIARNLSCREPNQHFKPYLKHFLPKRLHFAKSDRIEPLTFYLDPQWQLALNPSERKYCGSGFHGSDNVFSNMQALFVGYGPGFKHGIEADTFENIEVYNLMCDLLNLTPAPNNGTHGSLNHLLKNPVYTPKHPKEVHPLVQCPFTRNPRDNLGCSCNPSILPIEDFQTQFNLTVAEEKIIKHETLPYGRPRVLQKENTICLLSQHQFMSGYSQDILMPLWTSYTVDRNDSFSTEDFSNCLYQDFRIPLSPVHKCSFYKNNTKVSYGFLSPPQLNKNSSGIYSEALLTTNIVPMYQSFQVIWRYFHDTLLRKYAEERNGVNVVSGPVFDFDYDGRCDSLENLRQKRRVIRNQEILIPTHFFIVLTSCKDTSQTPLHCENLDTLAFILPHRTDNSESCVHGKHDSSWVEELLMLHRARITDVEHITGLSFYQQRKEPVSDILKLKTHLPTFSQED
Experimental: Each experiment was performed in triplicates;

NPP1 [3] = molecular target: T1, NPP1; assay: Inhibition of human NPP1, 100 μM p-Nph-5′-TMP as substrate (Tables 5, 6); details: for % inhibition ± SD at 10 μM, Human NPP1: inactive = no inhibition at 10 μM
Human CD73 = molecular target: T2, Human CD73 (Homo sapiens, UniProt P21589); assay: Inhibition of human CD73, 5 μM [2,8-3H]AMP as substrate; type: biochemical; details: 5 μM [2,8-3H]AMP as a substrate; for Ki: read-out: Ki ± SD (μM), Human CD73; for % inhibition ± SD at 10 μM, Human CD73: inactive = no inhibition at 10 μM
T2 sequence (P21589 27-549): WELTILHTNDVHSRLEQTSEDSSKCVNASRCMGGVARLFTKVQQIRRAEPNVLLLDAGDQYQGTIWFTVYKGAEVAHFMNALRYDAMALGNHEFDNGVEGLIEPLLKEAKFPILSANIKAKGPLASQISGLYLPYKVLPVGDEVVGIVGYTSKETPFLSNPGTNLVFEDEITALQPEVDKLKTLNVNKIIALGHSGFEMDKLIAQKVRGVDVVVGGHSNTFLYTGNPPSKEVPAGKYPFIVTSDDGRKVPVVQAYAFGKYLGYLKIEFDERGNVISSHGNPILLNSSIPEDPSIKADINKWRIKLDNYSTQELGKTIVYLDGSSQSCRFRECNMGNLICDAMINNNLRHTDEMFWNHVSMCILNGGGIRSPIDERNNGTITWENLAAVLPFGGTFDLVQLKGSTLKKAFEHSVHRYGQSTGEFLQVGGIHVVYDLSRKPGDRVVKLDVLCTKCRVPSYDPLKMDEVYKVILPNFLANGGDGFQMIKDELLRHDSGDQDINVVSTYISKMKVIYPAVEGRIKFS

Human CD39 (NTPDase1) = molecular target: T3, Human CD39 (NTPDase1) (Homo sapiens, UniProt P49961); assay: Inhibition of human CD39 (NTPDase1), 100 μM ADP as substrate; type: biochemical; details: 100 μM ADP as a substrate; for Ki: read-out: Ki ± SD (μM), Human CD39 (NTPDase1)
T3 sequence (P49961 1-510): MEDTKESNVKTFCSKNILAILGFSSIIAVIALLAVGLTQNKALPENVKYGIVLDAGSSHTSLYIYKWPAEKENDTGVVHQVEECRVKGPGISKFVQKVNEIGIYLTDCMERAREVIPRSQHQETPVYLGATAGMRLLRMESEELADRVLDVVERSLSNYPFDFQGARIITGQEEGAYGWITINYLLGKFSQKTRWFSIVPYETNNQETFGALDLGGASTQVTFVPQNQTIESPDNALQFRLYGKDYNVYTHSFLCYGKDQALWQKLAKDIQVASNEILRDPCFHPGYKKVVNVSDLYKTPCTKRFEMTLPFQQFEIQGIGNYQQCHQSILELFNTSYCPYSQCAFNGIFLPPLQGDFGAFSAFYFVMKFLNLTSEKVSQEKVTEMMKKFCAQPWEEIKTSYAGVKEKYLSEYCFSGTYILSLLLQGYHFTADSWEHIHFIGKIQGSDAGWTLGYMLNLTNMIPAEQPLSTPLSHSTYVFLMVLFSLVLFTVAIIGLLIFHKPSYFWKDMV

human NPP3 = molecular target: T4, human NPP3 (Homo sapiens, UniProt O14638); assay: Inhibition of human NPP3, 100 μM p-Nph-5′-TMP as substrate (Tables 5, 7); type: biochemical; details: 10 μM; 100 μM p-Nph-5′-TMP as a substrate; inactive = no inhibition at 10 μM
T4 sequence (O14638 1-875): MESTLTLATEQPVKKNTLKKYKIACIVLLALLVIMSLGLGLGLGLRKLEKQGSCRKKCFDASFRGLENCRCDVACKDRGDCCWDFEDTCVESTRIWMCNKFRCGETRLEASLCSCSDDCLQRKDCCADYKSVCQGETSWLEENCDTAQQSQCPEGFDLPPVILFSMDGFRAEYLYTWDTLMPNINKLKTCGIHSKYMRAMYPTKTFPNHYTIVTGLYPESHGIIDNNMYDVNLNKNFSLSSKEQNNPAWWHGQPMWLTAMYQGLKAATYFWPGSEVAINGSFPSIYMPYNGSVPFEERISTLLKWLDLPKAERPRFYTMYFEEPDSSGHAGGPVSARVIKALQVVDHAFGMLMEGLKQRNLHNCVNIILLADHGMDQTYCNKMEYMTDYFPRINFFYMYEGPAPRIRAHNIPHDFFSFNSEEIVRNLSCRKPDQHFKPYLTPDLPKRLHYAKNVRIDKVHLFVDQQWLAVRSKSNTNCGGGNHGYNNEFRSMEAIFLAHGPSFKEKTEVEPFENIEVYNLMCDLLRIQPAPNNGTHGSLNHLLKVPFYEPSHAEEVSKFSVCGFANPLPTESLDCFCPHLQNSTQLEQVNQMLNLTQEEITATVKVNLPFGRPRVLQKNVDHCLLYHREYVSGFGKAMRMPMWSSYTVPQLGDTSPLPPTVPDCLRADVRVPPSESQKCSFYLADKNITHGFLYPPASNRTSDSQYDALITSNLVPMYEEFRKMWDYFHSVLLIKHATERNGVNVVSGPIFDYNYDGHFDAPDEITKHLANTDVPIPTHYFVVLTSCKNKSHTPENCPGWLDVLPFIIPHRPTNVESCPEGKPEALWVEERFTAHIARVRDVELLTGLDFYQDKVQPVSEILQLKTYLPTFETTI

[4] = Chemical stability under acidic and basic conditions by 31P-NMR
Source text: To evaluate the chemical stability of uridine-5′-Pα,α-dithiophosphate analogues, we measured by 31P-NMR the time-dependent percentage of the analogues remaining under basic and acidic conditions, and due to air-oxidation.

[5] = read-out: Ki ± SD (μM), Human NPP1, 100 μM p-Nph-5′-TMP as a substrate
[6] = 10 μM, inactive = no inhibition at 10 μM
[7] = 100 μM p-Nph-5′-TMP as a substrate

SMILES | Ki (NPP1 [3]; [5]) [µM] | Ki (Human CD73) [µM] | % inhibition ± SD at 10 μM, Human CD39 (NTPDase1) (Human CD39 (NTPDase1); [6]) | % inhibition ± SD at 10 μM, Human NPP3 (human NPP3) | % inhibition ± SD at 10 μM, Human NPP1 (NPP1 [3]; [7]) | % inhibition ± SD at 10 μM, Human CD73 (Human CD73) | Ki (Human CD39 (NTPDase1)) [µM] | further results
Nc1nc(SCc2ccccc2)nc2c1ncn2[C@@H]1O[C@H](COP(O)(=S)OP(=O)(O)OP(=O)(O)O)[C@@H](O)[C@H]1O (stereo partly drawn) [2-Benzylthio-ATP-α-S] | – | – | – | – | – | – | – | Time for decomposition of 5% ([1]; Acidic pH, reference 34): 0.8 days; Time for decomposition of 10% ([1]; Acidic pH, reference 34): 1.7 days
CSc1nc(N)c2ncn(C3OC(COP(O)(=S)OP(=O)(O)O)C(O)C3O)c2n1 (stereo not drawn) [2-Methylthio-ADP-α-S] | – | – | – | – | – | – | – | Time for decomposition of 5% ([1]; Basic pH, reference 24): <0.021 days; Time for decomposition of 10% ([1]; Basic pH, reference 24): <0.021 days
Nc1ncnc2c1ncn2COCCOP(=O)(O)CP(=O)(O)O [Analogue 22] | 16.3 ± 2.5 | – | – | – | – | – | – | Ki (NPP1 [2]): 9.6 ± 2.84 µM
Nc1ncnc2c1ncn2[C@@H]1O[C@H](COP(=O)(O)CS(=O)(=O)O)[C@@H](O)[C@H]1O [Compound 20] | – | 49.5 ± 0.7 | inactived | inactived | inactived | – | – | –
Nc1ncnc2c1ncn2[C@@H]1O[C@H](COS(=O)(=O)CS(=O)(=O)O)[C@@H](O)[C@H]1O [Compound 21] | > 10 | > 10 | inactived | inactived | 12 ± 1% | 23 ± 3% | – | –
Nc1ncnc2c1ncn2COCCOP(=O)(O)CP(=O)(O)O [Compound 22] | – | 12.6 ± 1.4 | 22 ± 2% | inactived | – | – | > 10 | –
Nc1ncnc2c1ncn2COCCOP(=O)(O)C(Cl)(Cl)P(=O)(O)O [Compound 23] | > 10 | > 10 | 24 ± 3% | inactived | 4 ± 1% | 17 ± 4% | > 10 | –
Nc1ncnc2c1ncn2COCCOP(=O)(O)O [Compound 24] | – | > 10 | inactived | inactived | inactived | 5 ± 3% | – | –
Nc1ncnc2c1ncn2COCCO[PH](=O)O [Compound 25] | – | – | – | inactived | – | inactived | > 10 | inhibition at 10 µM (Human CD39 (NTPDase1); 10 μM, inactive = no inhibition at 10 μM, read-out: % inhibition ± SD at 10 μM, Human CD39 (NTPDase1)): 33%; Ki (NPP1 [3]): > 10 µM; inhibition at 10 µM (NPP1 [3]; read-out: % inhibition ± SD at 10 μM, Human NPP1): 6%
Nc1ncnc2c1ncn2COCCOP(O)(=S)OCCOCn1cnc2c(N)ncnc21 [Compound 26] | > 10 | – | 15 ± 2% | inactived | 13 ± 1% | inactived | > 10 | –
O=c1ccn([C@@H]2O[C@H](COP(=O)(O)OP(=O)(O)O)[C@@H](O)[C@H]2O)c(=O)[nH]1 [UDP] | – | – | – | – | – | – | – | decomposition ([4]; pD 2.1, after 28 days): 7%
O=c1ccn([C@@H]2O[C@H](COP(=O)(O)OP(=O)(O)OP(=O)(O)O)[C@@H](O)[C@H]2O)c(=O)[nH]1 [UTP] | – | – | – | – | – | – | – | Time for decomposition of 5% ([4]; Acidic pH): 7.5 days; Time for decomposition of 10% ([4]; Acidic pH): 19 days; Time for decomposition of 5% ([4]; Basic pH): 1 days; Time for decomposition of 10% ([4]; Basic pH): 8.5 days; decomposition ([4]; acidic, pD 2.1, after 20 days): 11%; decomposition ([4]; basic conditions (pD 12.1), after 20 days): 10%
